US11352350B2, “IRAK degraders and uses thereof” (Kymera Therapeutics, Inc., priority 2018, dated 2022)

How the values were obtained:
IRAK4 [1] = biological target: T1, IRAK4 (Homo sapiens (Human), UniProt Q9NWZ3); assay: hPBMC IRAK4 degradation flow assay; assay type: cell-based; settings: hPBMC monocyte
Summary of the method: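 Thawed human PBMCs treated with 10-point, 5-fold compound dilutions (0.1% DMSO) at 37° C. for 20 hours or 4 hours. IRAK4 measured by flow MFI in CD14+ monocytes and CD14− lymphocytes, normalized to DMSO and 10 μM 20-hour control; DC50 and max degradation from 4-parameter logistic fit.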

IRAK4 [2] = biological target: T1, IRAK4; assay: IRAK4 MSD degradation in OCI-LY10; assay type: cell-based
Summary of the method: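 OCI-LY10 cells treated with 8-point 1:3 dilutions (top 1 to 10 μM final) for 4 to 24 h at 37° C. Lysate IRAK4 measured by MSD sandwich immunoassay (2H9 capture, Y279 detection, SULFO-TAG anti-rabbit). DC50 from three-parameter logistic fit.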

OCI-LY10 = assay: CTG Cell Viability Assay - OCI-LY10; assay type: cell-based, human; settings: Homo sapiens, OCI-Ly10, 96 h, OCI-LY10, 4 days; read-out: CTG Cell Viability Assay - OCI-LY10: Average external-IC50
Summary of the method: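 OCI-LY10 cells exposed to 9-dose, 1:3 dilutions from 10 μM top (0.2% DMSO) for 4 days at 37° C, 5% CO2. Viability by CellTiter-Glo luminescence; IC50 from three-parameter logistic fit.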

IL-6 = IL-6 secretion in hPBMC using R848 stimulation; assay type: cell-based, human; settings: Homo sapiens, 20 h, hPBMC, R848 as stim, t = 20 h
[3] = 20 hrs, read-out: IRAK4 degradation in hPBMC monocyte: DC50
[4] = OCI-LY10, 4 hrs, read-out: IRAK4 MSD degradation in OCI-LY10 at 4 hrs: DC50
[5] = 20 hr, flow assay, read-out: IRAK4 degradation in hPBMC monocyte at 20 hr: Average external Abs DC50
[6] = OCI-LY10, 4 hrs, MSD, read-out: IRAK4 MSD degradation in OCI-LY10 at 4 hrs: Average external-Abs DC50
[7] = OCI-LY10, 24 hrs, MSD, read-out: IRAK4 MSD degradation in OCI-LY10 at 24 hrs: Average external-Abs DC50

T1 sequence (Q9NWZ3 whole entry): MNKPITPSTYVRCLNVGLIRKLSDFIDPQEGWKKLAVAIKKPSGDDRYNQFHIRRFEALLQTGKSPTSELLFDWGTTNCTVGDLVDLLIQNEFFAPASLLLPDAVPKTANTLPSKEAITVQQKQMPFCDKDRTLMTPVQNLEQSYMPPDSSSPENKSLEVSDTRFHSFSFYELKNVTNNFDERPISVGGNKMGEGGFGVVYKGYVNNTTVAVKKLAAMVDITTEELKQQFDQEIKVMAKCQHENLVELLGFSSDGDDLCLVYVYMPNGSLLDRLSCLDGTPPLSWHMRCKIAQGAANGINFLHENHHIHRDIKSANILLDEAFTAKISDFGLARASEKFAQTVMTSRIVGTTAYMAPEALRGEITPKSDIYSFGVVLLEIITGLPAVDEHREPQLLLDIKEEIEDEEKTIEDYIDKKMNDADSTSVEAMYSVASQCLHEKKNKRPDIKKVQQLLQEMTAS

Compound	DC50 (IRAK4 [1]; [3]) [nM]	DC50 (IRAK4 [2]; [4]) [nM]	IC50 (OCI-LY10) [nM]	IC50 (IL-6) [nM]	DC50 (IRAK4 [1]; [5]) [nM]	DC50 (IRAK4 [2]; [6]) [nM]	DC50 (IRAK4 [2]; [7]) [nM]
Cn1c(=O)n(C2CCC(=O)NC2=O)c2cccc(CC[C@H]3CN(C[C@H]4CC[C@H](n5cc(NC(=O)c6cnn7ccc(N8CCCOCC8)nc67)c(C(F)F)n5)CC4)CCO3)c21 (stereo partly shown) [I-516]	< 10	10 to 100	> 1000	1 to 10	–	–	–
O=C1CCC(n2c3ccccc3c3c(CCCN4CC5(CCN(C(=O)[C@H]6CC[C@H](n7cc(NC(=O)c8cnn9ccc(N%10C[C@H]%11C[C@@H]%10CO%11)nc89)c(C(F)F)n7)CC6)CC5)C4)ccnc32)C(=O)N1 (stereo partly shown) [I-447]	< 10	10 to 100	> 1000	1 to 10	–	–	–
Cn1c(=O)n(C2CCC(=O)NC2=O)c2cccc(CCC3CC4(CCN(C[C@H]5CC[C@H](n6cc(NC(=O)c7cnn8ccc(N9C[C@H]%10C[C@@H]9CO%10)nc78)c(C(F)F)n6)CC5)CC4)C3)c21 (stereo partly shown) [I-486]	< 10	< 10	> 1000	< 1	–	–	–
C[C@H](C#Cc1cccc2c1N(C)C(=O)C2C1CCC(=O)NC1=O)OC1CCN(C[C@H]2CC[C@H](n3cc(NC(=O)c4cnn5ccc(N6C[C@H]7C[C@@H]6CO7)nc45)c(C(F)F)n3)CC2)CC1 (stereo partly shown) [I-555]	< 10	< 10	> 1000	1 to 10	–	–	–
Cn1c(=O)n(C2CCC(=O)NC2=O)c2cccc(CCCN3CCC4(CC3)CN(C(=O)[C@H]3CC[C@H](n5cc(NC(=O)c6cnn7ccc(N8C[C@H]9C[C@@H]8CO9)nc67)c(C(F)F)n5)CC3)C4)c21 (stereo partly shown) [I-422]	–	–	> 1000	< 1	< 10	10 to 100	–
Cn1c(=O)n(C2CCC(=O)NC2=O)c2cccc(C#CCN3CCC4(CC3)CN(C[C@H]3CC[C@H](n5cc(NC(=O)c6cnn7ccc(N8C[C@H]9C[C@@H]8CO9)nc67)c(C(F)F)n5)CC3)C4)c21 (stereo partly shown) [I-485]	< 10	10 to 100	> 1000	1 to 10	–	–	–
CN(C[C@@H]1CN(Cc2cccc3c2n(C)c(=O)n3C2CCC(=O)NC2=O)CCO1)C[C@H]1CC[C@H](n2cc(NC(=O)c3cnn4ccc(N5C[C@H]6C[C@@H]5CO6)nc34)c(C(F)F)n2)CC1 (stereo partly shown) [I-411]	–	–	> 1000	< 1	10 to 100	> 1000	–
Cn1c(=O)n(C2CCC(=O)NC2=O)c2cccc(CCCCC3CCN(C(=O)c4ccc(-n5cc(NC(=O)c6cnn7ccc(N8C[C@H]9C[C@@H]8CO9)nc67)c(C(F)F)n5)cc4)CC3)c21 (stereo partly shown) [I-426]	–	–	> 1000	1 to 10	< 10	100 to 1000	–
CN(CC1CCN(c2cccc3c2C(=O)N(C2CCC(=O)NC2=O)C3=O)CC1)C[C@H]1CC[C@H](n2cc3cc(NC(=O)c4cccc(C(F)(F)F)n4)c(C(C)(C)O)cc3n2)CC1 (stereo partly shown) [I-317]	–	–	> 1000	1 to 10	10 to 100	10 to 100	10 to 100
C[C@@H]1CN(c2ccn3ncc(C(=O)Nc4cn([C@H]5CC[C@H](C(=O)N6CCC7(CC6)CN(CCCc6cccc8c6n(C)c(=O)n8C6CCC(=O)NC6=O)C7)CC5)nc4C(F)F)c3n2)C[C@H](C)O1 (stereo partly shown) [I-480]	< 10	10 to 100	> 1000	< 1	–	–	–
Cn1c(=O)n(C2CCC(=O)NC2=O)c2cccc(CCCOC3CCN(C[C@H]4CC[C@H](n5cc(NC(=O)c6cnn7cccnc67)c(N6CCOCC6)n5)CC4)CC3)c21 (stereo partly shown) [I-481]	100 to 1000	100 to 1000	> 1000	10 to 100	–	–	–
Cn1c(=O)n(C2CCC(=O)NC2=O)c2cccc(CN3CCC(OC4CCN(C[C@H]5CC[C@H](n6cc(NC(=O)c7cnn8ccc(N9C[C@H]%10C[C@@H]9CO%10)nc78)c(C(F)F)n6)CC5)CC4)CC3)c21 (stereo partly shown) [I-513]	< 10	< 10	> 1000	< 1	–	–	–
Cn1c(=O)n(C2CCC(=O)NC2=O)c2cccc(CCCN3CCOC4(CCN(C(=O)c5ccc(-n6cc(NC(=O)c7cnn8ccc(N9C[C@H]%10C[C@@H]9CO%10)nc78)c(C(F)F)n6)cc5)CC4)C3)c21 (stereo partly shown) [I-424]	–	–	> 1000	1 to 10	< 10	< 10	–
Cn1c(=O)n(C2CCC(=O)NC2=O)c2cccc(CCCC3CCN(C[C@H]4CC[C@H](n5cc(NC(=O)c6cnn7ccc(N8CCOC(C)(C)C8)nc67)c(C(F)F)n5)CC4)CC3)c21 (stereo partly shown) [I-525]	< 10	10 to 100	> 1000	< 1	–	–	–
CC[C@@H]1[C@H](F)C(=O)N[C@@H]1COc1ncc(C#C[C@H]2CC[C@H](CN(C)CCCOCCCc3ccc4c(c3)n(C)c(=O)n4C3CCC(=O)NC3=O)CC2)c2cc(C(N)=O)c(OC)cc12 (stereo partly shown) [I-185]	–	–	> 1000	< 1	< 10	10 to 100	10 to 100
Cn1c(=O)n(C2CCC(=O)NC2=O)c2cccc(CN3C[C@H]4CC[C@@H](C3)N4CC[C@H]3CC[C@H](n4cc(NC(=O)c5cnn6ccc(N7C[C@H]8C[C@@H]7CO8)nc56)c(C(F)F)n4)CC3)c21 (stereo partly shown) [I-511]	< 10	10 to 100	> 1000	1 to 10	–	–	–
Cn1c(=O)n(C2CCC(=O)NC2=O)c2cccc(C#CCCCOCc3ccc(-n4cc(NC(=O)c5cnn6ccc(N7C[C@H]8C[C@@H]7CO8)nc56)c(C(F)F)n4)cc3)c21 (stereo partly drawn) [I-498, N-[3-(difluoromethyl)-1-[4-[5-[1-(2,6-dioxo-3-piperidyl)-3-methyl-2-oxo-benzimidazol-4-yl]pent-4-ynoxymethyl]phenyl]pyrazol-4-yl]-5-[(1R,4R)-2-oxa-5-azabicyclo [2.2.1]heptan-5-yl] pyrazolo[1,5-a]pyrimidine-3-carboxamide]	100 to 1000	100 to 1000	> 1000	10 to 100	–	–	–
CN(CC(CCCOCCCc1cccc2c1n(C)c(=O)n2C1CCC(=O)NC1=O)C(=O)O)C[C@H]1CC[C@H](n2cc(NC(=O)c3cnn4ccc(N5C[C@H]6C[C@@H]5CO6)nc34)c(C(F)F)n2)CC1 (stereo partly drawn) [I-495, 2-[[[4-[3-(Difluoromethyl)-4-[[5-[(1R,4R)-2-oxa-5-azabicyclo [2.2.1]heptan-5-yl]pyrazolo [1,5-a]pyrimidine-3-carbonyl]amino]pyrazol-1-yl]cyclohexyl]methyl-methyl-amino]methyl]-5-[3-[1-(2,6-dioxo-3-piperidyl)-3-methyl-2-oxo-benzimidazol-4-yl]propoxy]pentanoic acid]	10 to 100	100 to 1000	> 1000	10 to 100	–	–	–
Cn1c(=O)n(C2CCC(=O)NC2=O)c2cccc(C#CCN3CCC4(CC3)CN(C(=O)[C@H]3CC[C@H](n5cc(NC(=O)c6cnn7ccc(N8C[C@H]9C[C@@H]8CO9)nc67)c(C(F)F)n5)CC3)C4)c21 (stereo partly shown) [I-418]	–	–	> 1000	1 to 10	10 to 100	10 to 100	–
O=C1CCC(n2c3cccc(C#CCOC4CCN(C[C@H]5CC[C@H](n6cc(NC(=O)c7cnn8ccc(N9C[C@H]%10C[C@@H]9CO%10)nc78)c(C(F)F)n6)CC5)CC4)c3c3cccnc32)C(=O)N1 (stereo partly shown) [I-482]	100 to 1000	10 to 100	> 1000	1 to 10	–	–	–
Cn1c(=O)n(C2CCC(=O)NC2=O)c2cccc(CC(=O)N3CC4(CCN(C[C@H]5CC[C@H](n6cc(NC(=O)c7cnn8ccc(N9C[C@H]%10C[C@@H]9CO%10)nc78)c(C(F)F)n6)CC5)CC4)C3)c21 (stereo partly shown) [I-421]	–	–	> 1000	< 1	< 10	< 10	–
Cn1c(=O)n(C2CCC(=O)NC2=O)c2cccc(CCC(=O)N3CCC4(CC3)CN(C[C@H]3CC[C@H](n5cc(NC(=O)c6cnn7ccc(N8C[C@H]9C[C@@H]8CO9)nc67)c(C(F)F)n5)CC3)C4)c21 (stereo partly shown) [I-414]	–	–	> 1000	< 1	< 10	< 10	–
Cn1c(=O)n(C2CCC(=O)NC2=O)c2cccc(OC3CC4(CCN(C[C@H]5CC[C@H](n6cc(NC(=O)c7cnn8ccc(N9C[C@H]%10C[C@@H]9CO%10)nc78)c(C(F)F)n6)CC5)CC4)C3)c21 (stereo partly shown) [I-526]	< 10	< 10	> 1000	< 1	–	–	–
Cn1c(=O)n(C2CCC(=O)NC2=O)c2cccc(CC3CC4(CCN(C(=O)c5ccc(-n6cc(NC(=O)c7cnn8ccc(N9C[C@H]%10C[C@@H]9CO%10)nc78)c(C(F)F)n6)cc5)CC4)C3)c21 (stereo partly shown) [I-423]	–	–	> 1000	1 to 10	< 10	100 to 1000	–
Cc1ccc(-c2nn([C@H]3CC[C@H](CN4CCC5(CC4)CN(CCCc4cccc6c4n(C)c(=O)n6C4CCC(=O)NC4=O)C5)CC3)cc2NC(=O)c2cnn3cccnc23)nc1 (stereo partly shown) [I-509]	10 to 100	10 to 100	> 1000	1 to 10	–	–	–
Cn1c(=O)n(C2CCC(=O)NC2=O)c2cccc(CCCOC3CCN(C[C@H]4CC[C@H](n5cc(NC(=O)c6cnn7ccc(N8CCCOCC8)nc67)c(C(F)F)n5)CC4)CC3)c21 (stereo partly shown) [I-515]	< 10	< 10	> 1000	< 1	–	–	–
